Data taken from ChEMBL document CHEMBL4130565, “Consequences of Depsipeptide Substitution on the ClpP Activation Activity of Antibacterial Acyldepsipeptides” (ACS Med Chem Lett, 2017).
Where “and” joins values, the source holds several entries; their conditions need not be identical. Equal entries are not always repeated. Where a SMILES comes first, the peptide text is derived from it. Bridges are numbered along the chain shown (N, C = ends). [ ]: non-standard residue; d: D form. The star is where a group is joined. Phe(3,5-F2) = N[C@@H](Cc1cc(F)cc(F)c1)C(=O)O; Heptenoyl(2E) = CCCC/C=C/C(=O)*; NMeA = CN[C@@H](C)C(=O)O; Dap = NC[C@H](N)C(=O)O

Legend:
[1] = target: ATP-dependent Clp protease proteolytic subunit (Bacillus subtilis (strain 168)) (UniProt P80244); experiment: Activation of Bacillus subtilis ClpP expressed in Escherichia coli BL21(DE3) using Abz-DFAPKMALVPYNO2 as substrate pretreated for 15 mins followed by substrate addition measured every 30 mins for 2 hrs by fluorescence assay
Sequence of ATP-dependent Clp protease proteolytic subunit (Bacillus subtilis (strain 168)) (P80244 whole entry, looked up): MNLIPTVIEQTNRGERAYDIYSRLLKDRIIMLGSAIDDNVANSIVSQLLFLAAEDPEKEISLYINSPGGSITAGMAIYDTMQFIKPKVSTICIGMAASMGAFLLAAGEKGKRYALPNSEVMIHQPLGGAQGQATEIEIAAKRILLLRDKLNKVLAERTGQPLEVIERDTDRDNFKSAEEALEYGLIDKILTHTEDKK

[2] = Half life in CD3OD assessed as hydrogen-deuterium exchange by 1H-NMR analysis; type: physicochemical
[3] = target: ATP-dependent Clp protease proteolytic subunit (Bacillus subtilis (strain 168)) (UniProt P80244); experiment: Stabilization of Bacillus subtilis ClpP assessed as change in melting temperature at 50 uM after 30 mins by SYPRO orange protein gel staining based FRET analysis
Bacillus subtilis = experiment: Antibacterial activity against Bacillus subtilis ATCC 6051 after 16 hrs by microdilution method; type: functional; conditions: ATCC 6051, 16 h

Kapp [1] [µM] | half-life [2] [min] | ΔTm [3] [°C] | MIC (Bacillus subtilis) | Compound
4.39 | < 4 | 12.7 | > 25 µM and > 18.6 µg/mL | CCCC/C=C/C(=O)N[C@@H](Cc1cc(F)cc(F)c1)C(=O)N[C@H]1CN(C)C(=O)[C@@H]2CCCN2C(=O)[C@H](C)NC(=O)[C@H](C)N(C)C(=O)[C@@H]2CCCN2C1=O
0.037 | 38 | 29.1 | 0.037 µM and 0.027 µg/mL | CCCC/C=C/C(=O)N[C@@H](Cc1cc(F)cc(F)c1)C(=O)N[C@H]1COC(=O)[C@@H]2CCCN2C(=O)[C@H](C)NC(=O)[C@H](C)N(C)C(=O)[C@@H]2CCCN2C1=O ({Heptenoyl(2E)}-[Phe(3,5-F2)]SP[NMeA]AP; ester 2-C)
0.085 | < 4 | 22.8 | 6.25 µM and 4.6 µg/mL | CCCC/C=C/C(=O)N[C@@H](Cc1cc(F)cc(F)c1)C(=O)N[C@H]1CNC(=O)[C@@H]2CCCN2C(=O)[C@H](C)NC(=O)[C@H](C)N(C)C(=O)[C@@H]2CCCN2C1=O ({Heptenoyl(2E)}-[Phe(3,5-F2)][Dap]P[NMeA]AP; lactam 2-C)
